From US11053234B2 (GlaxoSmithKline Intellectual Property Development Limited, priority 2016, dated 2021)

Each compound was assayed against T1, haematopoietic prostaglandin D synthase (H-PGDS) (Homo sapiens, UniProt O60760) (assay: H-PGDS RapidFire high throughput mass spectrometry assay (conversion of PGH2 to PGD2)). Settings: 10 nM H-PGDS, PGH2 formed in situ by COX-2 from arachidonic acid; read-out: Potency Range (mean pIC50) (converted).
T1 construct: Full length human H-PGDS cDNA (Invitrogen Ultimate ORF 10H13026) was amplified by PCR; 6-His (N); TEV protease cleavage site (N); made in house; host or cells: E. coli BL21 (DE3*), vector pET22b+
Format: biochemical
Summary of the method: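 RapidFire SPE–MS read-out calculated percent conversion from relative PGD2 and PGF2α (substrate surrogate) levels. Recombinant full-length human H-PGDS (His-tag, E. coli) turned over PGH2, produced in situ at ˜10 μM by human COX-2 (FLAG-tag, Sf9 cells) acting on arachidonic acid.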

T1 sequence (O60760 whole entry): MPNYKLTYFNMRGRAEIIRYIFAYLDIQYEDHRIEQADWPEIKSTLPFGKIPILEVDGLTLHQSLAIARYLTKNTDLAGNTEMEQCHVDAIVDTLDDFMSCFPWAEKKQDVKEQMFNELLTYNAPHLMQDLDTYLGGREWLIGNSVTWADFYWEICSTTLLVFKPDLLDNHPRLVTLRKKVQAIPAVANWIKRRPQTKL

First: CC(=O)c1coc(N2CC(NC(=O)[C@H]3C[C@H](Oc4cccc5scnc45)C3)C2)n1 [Example 47, (trans)-N-(1-(4-Acetyloxazol-2-yl)azetidin-3-yl)-3-(benzo[d]thiazol-4-yloxy)cyclobutanecarboxamide]
Second: O=C(NC1CN(c2ccccn2)C1)[C@H]1C[C@H](Oc2cc(F)cc3scnc23)C1 [Example 137, (trans)-3-((6-Fluorobenzo[d]thiazol-4-yl)oxy)-N-(1-(pyridin-2-yl)azetidin-3-yl)cyclobutanecarboxamide]
The IC50 of the first is higher: 0.1 to 1 µM for the first, 0.01 to 0.0794 µM for the second.

Compared with O=C(Nc1ccccn1)[C@H]1C[C@H](Oc2cccc3cccnc23)C1 [Example 183, (trans)-N-(Pyridin-2-yl)-3-(quinolin-8-yloxy)cyclobutanecarboxamide], Cc1nnc(NC(=O)[C@H]2C[C@H](Oc3cccc4cccnc34)C2)s1 [Example 203, (trans)-N-(5-Methyl-1,3,4-thiadiazol-2-yl)-3-(quinolin-8-yloxy)cyclobutanecarboxamide] is lower in IC50: 0.1 to 1 µM for the first, 0.01 to 0.0794 µM for the second.

O=C(NC1CCN(c2ncc(F)cn2)CC1)N1CC(Oc2cc(F)cc3scnc23)C1 [Example 118, 3-((6-Fluorobenzo[d]thiazol-4-yl)oxy)-N-(1-(5-fluoropyrimidin-2-yl)piperidin-4-yl)azetidine-1-carboxamide] and O=C(NC1CN(c2ncccn2)C1)N1CC(Oc2cc(F)cc3scnc23)C1 [Example 129, 3-((6-Fluorobenzo[d]thiazol-4-yl)oxy)-N-(1-(pyrimidin-2-yl)azetidin-3-yl)azetidine-1-carboxamide] fall in the same range of IC50: 0.01 to 0.0794 µM for the first, 0.01 to 0.0794 µM for the second.

CC(C)(C)c1nsc(NC(=O)N2CC(Oc3cccc4scnc34)C2)n1 [Example 339] and Cc1nc(NC(=O)N2CC(Oc3cccc4scnc34)C2)ns1 [Example 336, 3-(Benzo[d]thiazol-4-yloxy)-N-(5-methyl-1,2,4-thiadiazol-3-yl)azetidine-1-carboxamide] fall in the same range of IC50: 0.01 to 0.0794 µM for the first, 0.01 to 0.0794 µM for the second.

O=C(Nc1ccnc(C2CC2)n1)N1CC(Oc2cc(F)cc3scnc23)C1 [Example 313, N-(2-Cyclopropylpyrimidin-4-yl)-3-((6-fluorobenzo[d]thiazol-4-yl)oxy)azetidine-1-carboxamide] and O=C(NC1CN(c2ccccn2)C1)N1CC(Oc2cccc3scnc23)C1 [Example 54, 3-(Benzo[d]thiazol-4-yloxy)-N-(1-(pyridin-2-yl)azetidin-3-yl)azetidine-1-carboxamide] fall in the same range of IC50: 0.01 to 0.0794 µM for the first, 0.01 to 0.0794 µM for the second.

CC(O)[C@H]1CC[C@H](NC(=O)[C@H]2C[C@H](Oc3cc(F)ccc3OC(F)F)C2)CC1 (mixture of isomers) [Example 26] and COc1ccc(F)cc1O[C@H]1C[C@H](C(=O)NC2CCN(c3ccccn3)CC2)C1 [Example 157, (trans)-3-(5-Fluoro-2-methoxyphenoxy)-N-(1-(pyridin-2-yl)piperidin-4-yl)cyclobutanecarboxamide] fall in the same range of IC50: 0.01 to 0.0794 µM for the first, 0.01 to 0.0794 µM for the second.

First: O=C(Nc1nccs1)[C@H]1C[C@H](Nc2cccc3cccnc23)C1 [Example 221, (trans)-3-(Quinolin-8-ylamino)-N-(thiazol-2-yl)cyclobutanecarboxamide]
Second: COc1cc(F)ccc1O[C@H]1C[C@H](C(=O)Nc2nc(C(C)=O)cs2)C1 [Example 276, (trans)-N-(4-Acetylthiazol-2-yl)-3-(4-fluoro-2-methoxyphenoxy)cyclobutanecarboxamide]
The IC50 of the first is higher: 0.1 to 1 µM for the first, 0.01 to 0.0794 µM for the second.

Cc1coc2c(O[C@H]3C[C@H](C(=O)N[C@H]4CC[C@H](C(C)(C)O)CC4)C3)cccc12 [Example 270, (trans)-N-((trans)-4-(2-Hydroxypropan-2-yl)cyclohexyl)-3-((3-methylbenzofuran-7-yl)oxy)cyclobutanecarboxamide] and C[C@]1(O)CC[C@H](NC(=O)N2CC(Oc3cccc4scnc34)C2)CC1 [Example 105, 3-(Benzo[d]thiazol-4-yloxy)-N-((trans)-4-hydroxy-4-methylcyclohexyl)azetidine-1-carboxamide] fall in the same range of IC50: 0.1 to 1 µM for the first, 0.1 to 1 µM for the second.
